From article PMC12724174, “Biodegradation of the endocrine-disrupting compound bisphenol F by Sphingobium yanoikuyae DN12” (Applied and Environmental Microbiology, 2025)

Tests used:
BpfC (BpfC1) = test system: T1, BpfC (BpfC1); experiment: HPLC of residual substrate; Michaelis-Menten nonlinear fit; type: biochemical, Sphingobium yanoikuyae; settings: apparent; optimal pH 8.5 and 40°C; 0.02 mM FAD, 0.4 mM nicotinamide adenine dinucleotide phosphate in standard assay; aerobic
T1 construct: full length, 402 aa (1,209 bp), C-terminal His6 (pET-29a), E. coli BL21(DE3), Ni-NTA; N-terminus MSGNDR and C-terminus FAESVQ-LEHHHHHH by primers

BpfAB (BpfA1B1) = test system: T2, BpfAB (BpfA1B1); experiment: as above; type: biochemical, Sphingobium yanoikuyae; settings: apparent; optimal pH 8.0 and 55°C; 0.1 mM FAD, 0.2 mM phenazine methosulfate in standard assay; BpfB mostly apo
T2 construct: gene bpfA1; bpfA1B1 co-expressed from pET-29a in E. coli BL21(DE3), N-terminal His6 on BpfA (MHHHHHHPLSVAE by primer), Ni-NTA; total 663 aa; BpfB mostly apo (little heme); C-terminus of BpfB VEPKP by primer; with Cytochrome c BpfB

Km (BpfC (BpfC1)) [µM]	Compound	Km (BpfAB (BpfA1B1)) [µM]
21.3 ± 2.88	O=C(c1ccc(O)cc1)c1ccc(O)cc1 [DHBP, 4,4'-dihydroxybenzophenone]	–
–	Oc1ccc(Cc2ccc(O)cc2)cc1 [BPF, Bisphenol F]	19.3 ± 6.66
